# Laboratory results: PubChem BioAssay (NCI)
#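 Each compound was tested at five concentrations against cells in 96-well plates for 48 hours. TGI: total growth inhibition.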
# Key:
# Assay in all cases: NCI-60 cell line screen, 48 h
# [1] = test system: HOP-92 NSCLC
# [2] = test system: SN12C renal
# [3] = test system: SK-MEL-5 melanoma
# [4] = test system: 786-0 renal
# [5] = test system: KM12 colon
# [6] = test system: PC-3 prostate
# [7] = test system: SK-MEL-2 melanoma
# [8] = test system: RXF 393 renal
# [9] = test system: HL-60(TB) leukemia
# [10] = test system: SW-620 colon
# [11] = test system: OVCAR-8 ovarian
# [12] = test system: UACC-62 melanoma
# [13] = test system: ACHN renal
# [14] = test system: IGROV1 ovarian
# [15] = test system: HCT-15 colon
# [16] = test system: SF-268 CNS
# [17] = test system: LOX IMVI melanoma
# [18] = test system: RPMI-8226 leukemia
# [19] = test system: HCT-116 colon
# [20] = test system: MDA-MB-435
# [21] = test system: CCRF-CEM leukemia
# [22] = test system: M14 melanoma
# [23] = test system: DU-145 prostate
# [24] = test system: SNB-19 CNS
# [25] = test system: SNB-75 CNS
# [26] = test system: MOLT-4 leukemia
# [27] = test system: MDA-N
# [28] = test system: MCF7 breast
# [29] = test system: OVCAR-5 ovarian
# [30] = test system: SK-MEL-28 melanoma
# [31] = test system: HS 578T breast
# [32] = test system: TK-10 renal
# [33] = test system: CAKI-1 renal
# [34] = test system: SR leukemia
# [35] = test system: A549 NSCLC
# [36] = test system: A498 renal
# [37] = test system: OVCAR-4 ovarian
# [38] = test system: MDA-MB-231 breast
# [39] = test system: EKVX NSCLC
# [40] = test system: HOP-62 NSCLC
# [41] = test system: K-562 leukemia
# [42] = test system: SK-OV-3 ovarian
# [43] = test system: UACC-257 melanoma
# [44] = test system: U251 CNS
# [45] = test system: HT29 colon
compound,measurement,setting,value
COc1cc(/C=C2\CCC(C)c3c2nc(N)c(C#N)c3-c2cc(OC)c(OC)c(OC)c2)cc(OC)c1OC (stereo not given),TGI,[1],> 100 µM
same,TGI,[2],> 100 µM
same,TGI,[3],> 100 µM
same,TGI,[4],> 100 µM
same,TGI,[5],> 100 µM
same,TGI,[6],> 100 µM
same,TGI,[7],> 100 µM
same,TGI,[8],> 100 µM
same,TGI,[9],> 100 µM
same,TGI,[10],> 100 µM
same,TGI,[11],40.3 µM
same,TGI,[12],> 100 µM
same,TGI,[13],> 100 µM
same,TGI,[14],> 100 µM
same,TGI,[15],> 100 µM
same,TGI,[16],> 100 µM
same,TGI,[17],> 100 µM
same,TGI,[18],> 100 µM
same,TGI,[19],> 100 µM
same,TGI,[20],> 100 µM
same,TGI,[21],> 100 µM
same,TGI,[22],> 100 µM
same,TGI,[23],> 100 µM
same,TGI,[24],> 100 µM
same,TGI,[25],15 µM
same,TGI,[26],> 100 µM
same,TGI,[27],> 100 µM
same,TGI,[28],> 100 µM
same,TGI,[29],> 100 µM
same,TGI,[30],> 100 µM
same,TGI,[31],75.1 µM
same,TGI,[32],> 100 µM
same,TGI,[33],> 100 µM
same,TGI,[34],> 100 µM
same,TGI,[35],> 100 µM
same,TGI,[36],> 100 µM
same,TGI,[37],78.1 µM
same,TGI,[38],> 100 µM
same,TGI,[39],> 100 µM
same,TGI,[40],> 100 µM
same,TGI,[41],> 100 µM
same,TGI,[42],> 100 µM
same,TGI,[43],> 100 µM
same,TGI,[44],> 100 µM
same,TGI,[45],> 100 µM
